According to patent US20250195530A1, “POLQ INHIBITORS” (ASTRAZENECA AB, priority 2022, published 2025):

Legend:
DLD-1 cells = assay: Inhibition of proliferation, DLD-1 BRCA2 wt control (Cell Titre Glo 3D); type: cell-based; conditions: Homo sapiens, DLD-1, proliferation, luminescence; second Prolif column (c6), taken as DLD-1 BRCA2 wt control; read-out: POLQ PD Prolif Lumin (converted)
In short: (§1)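 Isogenic DLD-1 pair; BRCA2−/− seeded 3,000 cells/mL and read day 12, wt seeded 1,500 cells/mL and read day 7. 10-pt titration (top 10 μM, 3-fold), re-fed with compound day 6, 37 °C/5% CO2. CTG 3D endpoint; IC50 at 50% signal loss.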

DLD-1 BRCA2−/− cells = assay: Homologous recombination synthetic lethal inhibition of proliferation, DLD-1 BRCA2-/- (Cell Titre Glo 3D); type: cell-based; conditions: Homo sapiens, DLD-1, proliferation, luminescence, taken as DLD-1 BRCA2-/-; read-out: POLQ PD Prolif Lumin (converted)
In short: as §1

IC50 (DLD-1 cells) [nM]	Structure (SMILES)	IC50 (DLD-1 BRCA2−/− cells) [nM]
> 10000	CC1(Oc2ncnc3c2nc(-c2ccc(OCCC4(C(=O)O)CC4)cc2Cl)n3Cc2cccc(Cl)c2)CC1 [Example T407, 1-(2-(3-chloro-4-(9-(3-chlorobenzyl)-6-(1-methylcyclopropoxy)-9H-purin-8-yl)phenoxy)ethyl)cyclopropane-1-carboxylic acid]	316
> 10000	Cc1ccnc(Cn2c(-c3ccc(C(=O)N4CCC(F)CC4)cc3Cl)nc3c(OC4(C)CC4)ncnc32)c1 [Example T419, (3-chloro-4-(6-(1-methylcyclopropoxy)-9-((4-methylpyridin-2-yl)methyl)-9H-purin-8-yl)phenyl)(4-fluoropiperidin-1-yl)methanone]	1000
> 10000	Cc1ccnc(Cn2c(-c3ccc(CC(=O)N4C[C@@H](O)[C@H](F)C4)cc3Cl)nc3c(OC4(C)CC4)ncnc32)c1 [Example T422, 2-(3-chloro-4-(6-(1-methylcyclopropoxy)-9-((4-methylpyridin-2-yl)methyl)-9H-purin-8-yl)phenyl)-1-((3R,4R)-3-fluoro-4-hydroxypyrrolidin-1-yl)ethan-1-one]	1000
10000	FC(F)(F)C1(Oc2ncnc3c2nc(-c2ccc(OCCN4CCNCC4)cc2Cl)n3Cc2ccccc2)COC1 [Example T424, 9-benzyl-8-(2-chloro-4-(2-(piperazin-1-yl)ethoxy)phenyl)-6-((3-(trifluoromethyl)oxetan-3-yl)oxy)-9H-purine]	2000
> 10000	CC1(Oc2ncnc3c2nc(-c2ccc(OCCCN4CC(O)C4)cc2Cl)n3Cc2cc(C(F)(F)F)ccn2)CC1 [Example T425, 1-(3-(3-chloro-4-(6-(1-methylcyclopropoxy)-9-((4-(trifluoromethyl)pyridin-2-yl)methyl)-9H-purin-8-yl)phenoxy)propyl)azetidin-3-ol]	501
> 10000	Cc1ccnc(Cn2c(-c3ccc(C(=O)N4CC5(CNC5)C4)cc3Cl)nc3c(OC4(C)CC4)ncnc32)c1 [Example T428, (3-chloro-4-(6-(1-methylcyclopropoxy)-9-((4-methylpyridin-2-yl)methyl)-9H-purin-8-yl)phenyl)(2,6-diazaspiro[3.3]heptan-2-yl)methanone]	> 10000
> 10000	Cc1ccnc(Cn2c(-c3ccc(C(=O)N4CC5(CCN5)C4)cc3Cl)nc3c(OC4(C)CC4)ncnc32)c1 [Example T429, (3-chloro-4-(6-(1-methylcyclopropoxy)-9-((4-methylpyridin-2-yl)methyl)-9H-purin-8-yl)phenyl)(1,6-diazaspiro[3.3]heptan-6-yl)methanone]	1260
> 10000	Cc1ccnc(Cn2c(-c3ccc(CC(=O)N4CCNC(=O)C4)cc3Cl)nc3c(OC4(C)CC4)ncnc32)c1 [Example T431, 4-(2-(3-chloro-4-(6-(1-methylcyclopropoxy)-9-((4-methylpyridin-2-yl)methyl)-9H-purin-8-yl)phenyl)acetyl)piperazin-2-one]	2510
> 10000	CC1(Oc2ncnc3c2nc(-c2ccc(OCCC(C)(C)C(=O)O)cc2Cl)n3Cc2cccc(Cl)c2)CC1 [Example T435, 4-(3-chloro-4-(9-(3-chlorobenzyl)-6-(1-methylcyclopropoxy)-9H-purin-8-yl)phenoxy)-2,2-dimethylbutanoic acid]	200

Structure (SMILES)	IC50 (DLD-1 cells) [nM]	IC50 (DLD-1 BRCA2−/− cells) [nM]
CC1(Oc2cccc3c2nc(-c2ccc(OCCC(=O)O)cc2Cl)n3Cc2cccc(Cl)c2)CCC1 [Example T406, 3-(3-chloro-4-(1-(3-chlorobenzyl)-4-(1-methylcyclobutoxy)-1H-benzo[d]imidazol-2-yl)phenoxy)propanoic acid]	> 10000	2000
Cc1ccnc(Cn2c(-c3ccc(C(=O)N4CC5CC(C4)N5)cc3Cl)nc3c(OC4(C)CC4)ncnc32)c1 [Example T427, (3,6-diazabicyclo[3.1.1]heptan-3-yl)(3-chloro-4-(6-(1-methylcyclopropoxy)-9-((4-methylpyridin-2-yl)methyl)-9H-purin-8-yl)phenyl)methanone]	> 10000	7940
